Laboratory results: patent US20230113037A1 (Bayer Aktiengesellschaft, priority 2019, published 2023)
Where two headings read alike, the source gives them in different places.

Columns and labels:
AHR [1] = biological target: T1, AHR (Homo sapiens, UniProt P35869); experiment: In vitro assay 1: antagonism in human cell line (AHR transactivation, firefly luciferase reporter, kynurenic acid prestimulated); format: cell-based; conditions: AHR Antagonism Human IC50 [M]
T1 construct: U87 MG glioblastoma cells (ATCC #HTB-14) endogenously expressing AHR; endogenous in cells; host or cells: U87 MG glioblastoma cells (ATCC #HTB-14)
T1 sequence (P35869 11-848): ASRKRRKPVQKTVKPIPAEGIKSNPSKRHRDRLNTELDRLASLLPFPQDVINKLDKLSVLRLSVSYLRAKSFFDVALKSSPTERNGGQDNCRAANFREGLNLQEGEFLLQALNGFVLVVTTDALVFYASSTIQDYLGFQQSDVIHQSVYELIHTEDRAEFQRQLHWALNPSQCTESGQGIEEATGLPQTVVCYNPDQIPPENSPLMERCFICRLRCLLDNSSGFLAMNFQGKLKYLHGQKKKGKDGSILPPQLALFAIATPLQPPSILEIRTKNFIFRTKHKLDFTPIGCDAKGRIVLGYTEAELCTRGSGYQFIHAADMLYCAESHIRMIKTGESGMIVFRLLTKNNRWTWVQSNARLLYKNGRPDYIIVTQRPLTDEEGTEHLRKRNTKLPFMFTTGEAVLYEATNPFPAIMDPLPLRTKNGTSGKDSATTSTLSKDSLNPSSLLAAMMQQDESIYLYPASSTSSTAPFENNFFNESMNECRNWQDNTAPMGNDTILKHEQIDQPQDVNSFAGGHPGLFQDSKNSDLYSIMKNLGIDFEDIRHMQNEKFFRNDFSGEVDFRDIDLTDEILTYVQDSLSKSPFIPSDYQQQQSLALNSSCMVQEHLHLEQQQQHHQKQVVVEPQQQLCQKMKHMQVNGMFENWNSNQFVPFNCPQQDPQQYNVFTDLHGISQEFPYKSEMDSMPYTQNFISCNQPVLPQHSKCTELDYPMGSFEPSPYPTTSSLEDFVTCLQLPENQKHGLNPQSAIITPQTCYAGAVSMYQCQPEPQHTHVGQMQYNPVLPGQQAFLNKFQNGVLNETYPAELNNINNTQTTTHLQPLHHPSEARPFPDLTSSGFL
How it was run: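 U87 MG glioblastoma cells with endogenous AHR, stably carrying a DRE-driven firefly luciferase reporter and constitutive Renilla reporter, prestimulated with kynurenic acid before compound addition. Firefly and Renilla read by dual luciferase; Renilla flags toxicity; normalized to controls (150 μM kynurenic acid + 5 μM staurosporine as full inhibition); repeat values averaged or median.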

AHR [2] = biological target: T2, AHR (Mus musculus, UniProt P30561); experiment: In vitro assay 3: antagonism in mouse cell line (AHR transactivation, firefly luciferase reporter, kynurenic acid prestimulated); format: cell-based; conditions: 200 μM kynurenic acid, 20 hours, read-out: AHR Antagonism Mouse IC50
T2 sequence (P30561 1-848 P471L/N533S/M589L): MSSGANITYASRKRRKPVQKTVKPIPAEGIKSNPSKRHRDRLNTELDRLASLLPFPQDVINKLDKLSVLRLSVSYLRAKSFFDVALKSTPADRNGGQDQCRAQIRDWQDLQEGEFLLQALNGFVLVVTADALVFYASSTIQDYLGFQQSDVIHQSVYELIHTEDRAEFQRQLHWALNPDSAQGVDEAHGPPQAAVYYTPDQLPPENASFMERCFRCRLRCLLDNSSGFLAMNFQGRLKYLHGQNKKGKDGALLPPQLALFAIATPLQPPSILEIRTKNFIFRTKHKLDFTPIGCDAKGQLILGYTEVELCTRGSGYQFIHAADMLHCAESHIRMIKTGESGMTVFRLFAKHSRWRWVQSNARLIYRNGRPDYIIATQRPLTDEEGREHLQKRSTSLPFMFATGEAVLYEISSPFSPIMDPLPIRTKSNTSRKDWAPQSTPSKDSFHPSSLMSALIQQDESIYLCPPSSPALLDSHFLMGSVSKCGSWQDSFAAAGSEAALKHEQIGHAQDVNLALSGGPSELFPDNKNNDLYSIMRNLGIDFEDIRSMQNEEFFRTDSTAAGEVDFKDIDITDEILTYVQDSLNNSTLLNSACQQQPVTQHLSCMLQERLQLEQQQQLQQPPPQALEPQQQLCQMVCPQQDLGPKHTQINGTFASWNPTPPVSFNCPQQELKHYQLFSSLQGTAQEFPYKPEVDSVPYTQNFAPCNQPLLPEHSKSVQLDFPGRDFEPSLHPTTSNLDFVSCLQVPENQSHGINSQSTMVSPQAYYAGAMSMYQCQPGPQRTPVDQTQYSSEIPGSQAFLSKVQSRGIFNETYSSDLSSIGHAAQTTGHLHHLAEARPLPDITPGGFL
How it was run: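 Mouse cells stably carrying a DRE-driven, AHR-inducible firefly luciferase reporter were prestimulated with the endogenous agonist kynurenic acid before compound addition. Luciferase activity was measured by luminescence and normalized to positive and negative controls, with cells lacking kynurenic acid serving as full-inhibition control. Repeat tests are reported as mean or median.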

[3] = Hepa 1c1c7 cells, firefly luciferase reporter

| SMILES | IC50 (AHR [1]) [M] | IC50 (AHR [2]; mouse Hepa 1c1c7 cells) [nM] | IC50 (AHR [1]; firefly luciferase reporter) [M] | IC50 (AHR [2]; [3]) [nM] |
| --- | --- | --- | --- | --- |
| Cc1nnc(-c2nc3c4ccccc4nc(N[C@@H]4CCCCNC4=O)n3n2)o1 [Example 199, (3R)-3-{[2-(5-methyl-1,3,4-oxadiazol-2-yl)[1,2,4]triazolo[1,5-c]quinazolin-5-yl]amino}azepan-2-one] | 5.37e-07 | 114 |  |  |
| CS(=O)(=O)c1ccc(-c2nc3c4ccccc4nc(N[C@H]4CCCCNC4=O)n3n2)cc1 [Example 375, (3S)-3-({2-[4-(methanesulfonyl)phenyl][1,2,4]triazolo[1,5-c]quinazolin-5-yl}amino)azepan-2-one] | 7.95e-07 | 30.6 |  |  |
| O=C1NCCNC[C@H]1Nc1nc2ccccc2c2nc(-c3cc(F)ccc3OC(F)(F)F)nn12 [Example 719, (6R)-6-({2-[5-fluoro-2-(trifluoromethoxy)phenyl][1,2,4]triazolo[1,5-c]quinazolin-5-yl}amino)-1,4-diazepan-5-one] | 9.56e-06 | 239 |  |  |
| COc1ccc(-c2nc3c4cccc(CSC)c4nc(N[C@@H]4CCCCNC4=O)n3n2)cc1 [Example 863, (3R)-3-({2-(4-methoxyphenyl)-7-[(methylsulfanyl)methyl][1,2,4]triazolo[1,5-c]quinazolin-5-yl}amino)azepan-2-one] |  |  | 2.98e-09 | 12.9 |
| COc1cccc(-c2nc3c4ccccc4nc(NC4CNCCNC4=O)n3n2)c1 (centres unmarked) [Example 115, 6-{[2-(3-methoxyphenyl)[1,2,4]triazolo[1,5-c]quinazolin-5-yl]amino}-1,4-diazepan-5-one] | 1.11e-06 | 68 |  |  |
| Cn1cc(-c2nc3c4c(C#N)cccc4nc(N[C@@H]4CCCCNC4=O)n3n2)cn1 [Example 247, 2-(1-methyl-1H-pyrazol-4-yl)-5-{[(3R)-2-oxoazepan-3-yl]amino}[1,2,4]triazolo[1,5-c]quinazoline-10-carbonitrile] | 3.08e-07 | 591 |  |  |
| CCC[C@@H](Nc1nc2ccccc2c2nc(-c3cc(Cl)ccc3OC(F)(F)F)nn12)C(=O)NC [Example 501, N^2-{2-[5-chloro-2-(trifluoromethoxy)phenyl][1,2,4]triazolo[1,5-c]quinazolin-5-yl}-N-methyl-D-norvalinamide] | > 2e-05 | 90.8 |  |  |
| CCc1nn(C2CC2)cc1-c1nc2c3cccc(C(F)(F)F)c3nc(N[C@@H]3CCCCNC3=O)n2n1 [Example 749, (3R)-3-{[2-(1-cyclopropyl-3-ethyl-1H-pyrazol-4-yl)-7-(trifluoromethyl)[1,2,4]triazolo[1,5-c]quinazolin-5-yl]amino}azepan-2-one] | 1.54e-09 | 2.12 |  |  |
| O=C1NCCCC[C@H]1Nc1nc2ccccc2c2nc(-c3cccnn3)nn12 [Example 644, (3R)-3-{[2-(pyridazin-3-yl)[1,2,4]triazolo[1,5-c]quinazolin-5-yl]amino}azepan-2-one] | 1.03e-07 | 61.7 |  |  |
| O=C1NCCNCC1Nc1nc2cccc(C3CC3)c2c2nc(-c3cccc(F)c3)nn12 (centres unmarked) [Example 295, 6-{[10-cyclopropyl-2-(3-fluorophenyl)[1,2,4]triazolo[1,5-c]quinazolin-5-yl]amino}-1,4-diazepan-5-one] | > 2e-05 | 2910 |  |  |
| COc1cccc(-c2nc3c4ccccc4nc(NC4CNCCNC4=O)n3n2)c1 (single isomer, unassigned) [Example 117, 6-{[2-(3-methoxyphenyl)[1,2,4]triazolo[1,5-c]quinazolin-5-yl]amino}-1,4-diazepan-5-one] | 9.04e-08 | 76.5 |  |  |
| COc1ccc(-c2nc3c4cccc(Br)c4nc(N[C@H](C)C(=O)NCCN4CCN(C)CC4)n3n2)cc1 [Example 780, N^2-[7-bromo-2-(4-methoxyphenyl)[1,2,4]triazolo[1,5-c]quinazolin-5-yl]-N-[2-(4-methylpiperazin-1-yl)ethyl]-D-alaninamide] | 4.91e-09 | 5.55 |  |  |
| N#Cc1cccc2c1nc(N[C@@H]1CNCCNC1=O)n1nc(-c3cn[nH]c3)nc21 [Example 935, 5-{[(6R)-5-oxo-1,4-diazepan-6-yl]amino}-2-(1H-pyrazol-4-yl)[1,2,4]triazolo[1,5-c]quinazoline-7-carbonitrile] |  |  | 4.72e-06 | 1120 |
| O=C1NCCNCC1Nc1nc2cccc(Cl)c2c2nc(-c3cccc(F)c3)nn12 (centres unmarked) [Example 284, 6-{[10-chloro-2-(3-fluorophenyl)[1,2,4]triazolo[1,5-c]quinazolin-5-yl]amino}-1,4-diazepan-5-one] | > 2e-05 | 277 |  |  |
| CCCNC(=O)[C@H](C)Nc1nc2c(Br)cccc2c2nc(-c3cnn(C)c3)nn12 [Example 795, N^2-[7-bromo-2-(1-methyl-1H-pyrazol-4-yl)[1,2,4]triazolo[1,5-c]quinazolin-5-yl]-N-propyl-L-alaninamide] |  |  | 2.46e-07 | 3130 |
| CNCCNC(=O)[C@@H](C)Nc1nc2c(Br)cccc2c2nc(-c3cnn(C)c3)nn12 [Example 991, N^2-[7-bromo-2-(1-methyl-1H-pyrazol-4-yl)[1,2,4]triazolo[1,5-c]quinazolin-5-yl]-N-[2-(methylamino)ethyl]-D-alaninamide-hydrogen chloride (1/1)] |  |  | 3.13e-08 | 76.6 |
| O=C1NCCC[C@H]1Nc1nc2ccccc2c2nc(-c3ccncc3F)nn12 [Example 482, (3R)-3-{[2-(3-fluoropyridin-4-yl)[1,2,4]triazolo[1,5-c]quinazolin-5-yl]amino}piperidin-2-one] | 2.23e-06 | 3160 |  |  |
| Cn1nccc1-c1nc2c3ccccc3nc(N[C@@H]3CCCCNC3=O)n2n1 [Example 65, (3R)-3-{[2-(1-methyl-1H-pyrazol-5-yl)[1,2,4]triazolo[1,5-c]quinazolin-5-yl]amino}azepan-2-one] | 6.42e-09 | 3.17 |  |  |
| CC(C)n1cc(-c2nc3c4cccc(OC(F)(F)F)c4nc(N[C@@H]4CCCCNC4=O)n3n2)cn1 [Example 759, (3R)-3-({2-[1-(propan-2-yl)-1H-pyrazol-4-yl]-7-(trifluoromethoxy)[1,2,4]triazolo[1,5-c]quinazolin-5-yl}amino)azepan-2-one] | 7.68e-09 | 25 |  |  |
| Cn1cc(-c2nc3c4cccc(C(F)(F)F)c4nc(N[C@H]4CCCCNC4=O)n3n2)cn1 [Example 584, (3S)-3-{[2-(1-methyl-1H-pyrazol-4-yl)-7-(trifluoromethyl)[1,2,4]triazolo[1,5-c]quinazolin-5-yl]amino}azepan-2-one] | 4.39e-08 | 153 |  |  |
| O=C1NCCCC[C@H]1Nc1nc2ccccc2c2nc(-c3cccnc3F)nn12 [Example 640, (3R)-3-{[2-(2-fluoropyridin-3-yl)[1,2,4]triazolo[1,5-c]quinazolin-5-yl]amino}azepan-2-one] | 2.54e-08 | 30.7 |  |  |
| O=C1NCCCC[C@H]1Nc1nc2ccccc2c2nc(-c3cncc(Cl)c3)nn12 [Example 480, (3R)-3-{[2-(5-chloropyridin-3-yl)[1,2,4]triazolo[1,5-c]quinazolin-5-yl]amino}azepan-2-one] | 2.07e-08 | 14.8 |  |  |
